Test results reported in PubChem BioAssay (NCI).
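Dose response: 5 concentrations. Exposure: 48 h. Format: 96-well plates. Endpoint: linear interpolation; highest concentration if not reached. TGI: total growth inhibition.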

Key:
Assay in all cases: growth of human tumour cells (NCI), 48 h
[1] = system: SN12C renal
[2] = system: SF-268 CNS
[3] = system: OVCAR-8 ovarian
[4] = system: TK-10 renal
[5] = system: 786-0 renal
[6] = system: HOP-62 NSCLC
[7] = system: SNB-75 CNS
[8] = system: MCF7 breast
[9] = system: EKVX NSCLC
[10] = system: HL-60(TB) leukemia
[11] = system: SF-539 CNS
[12] = system: HT29 colon
[13] = system: COLO 205 colon
[14] = system: HS 578T breast
[15] = system: K-562 leukemia
[16] = system: MOLT-4 leukemia
[17] = system: ACHN renal
[18] = system: SK-MEL-2 melanoma
[19] = system: U251 CNS
[20] = system: SF-295 CNS
[21] = system: UACC-62 melanoma
[22] = system: NCI-H460 lung
[23] = system: NCI/ADR-RES ovarian
[24] = system: MALME-3M melanoma
[25] = system: HCC-2998 colon
[26] = system: OVCAR-4 ovarian
[27] = system: UACC-257 melanoma
[28] = system: IGROV1 ovarian
[29] = system: SK-OV-3 ovarian
[30] = system: UO-31 renal
[31] = system: MDA-MB-231 breast
[32] = system: SR leukemia
[33] = system: NCI-H522 lung
[34] = system: MDA-N
[35] = system: RPMI-8226 leukemia
[36] = system: HCT-116 colon
[37] = system: CAKI-1 renal
[38] = system: NCI-H226 lung
[39] = system: PC-3 prostate
[40] = system: KM12 colon
[41] = system: T-47D breast
[42] = system: SK-MEL-5 melanoma
[43] = system: OVCAR-3 ovarian
[44] = system: A498 renal
[45] = system: BT-549 breast
[46] = system: HCT-15 colon
[47] = system: A549 NSCLC
[48] = system: SNB-19 CNS
[49] = system: LOX IMVI melanoma
[50] = system: MDA-MB-435
[51] = system: OVCAR-5 ovarian
[52] = system: DU-145 prostate
[53] = system: NCI-H23 lung
[54] = system: M14 melanoma
[55] = system: CCRF-CEM leukemia
[56] = system: SW-620 colon

## NC(=O)c1nnc2ccc(F)cc2c1N
[1]
  TGI: > 100 µM
[2]
  TGI: > 100 µM
[3]
  TGI: > 100 µM
[4]
  TGI: > 100 µM
[5]
  TGI: > 100 µM
[6]
  TGI: > 100 µM
[7]
  TGI: > 100 µM
[8]
  TGI: > 100 µM
[9]
  TGI: > 100 µM
[10]
  TGI: > 100 µM
[11]
  TGI: > 100 µM
[12]
  TGI: > 100 µM
[13]
  TGI: > 100 µM
[14]
  TGI: > 100 µM
[15]
  TGI: > 100 µM
[16]
  TGI: > 100 µM
[17]
  TGI: > 100 µM
[18]
  TGI: > 100 µM
[19]
  TGI: > 100 µM
[20]
  TGI: > 100 µM
[21]
  TGI: > 100 µM
[22]
  TGI: > 100 µM
[23]
  TGI: > 100 µM
[24]
  TGI: > 100 µM
[25]
  TGI: > 100 µM
[26]
  TGI: > 100 µM
[27]
  TGI: > 100 µM
[28]
  TGI: > 100 µM
[29]
  TGI: > 100 µM
[30]
  TGI: > 100 µM
[31]
  TGI: > 100 µM
[32]
  TGI: > 100 µM
[33]
  TGI: > 100 µM
[34]
  TGI: > 100 µM
[35]
  TGI: > 100 µM
[36]
  TGI: > 100 µM
[37]
  TGI: > 100 µM
[38]
  TGI: 73.5 µM
[39]
  TGI: > 100 µM
[40]
  TGI: > 100 µM
[41]
  TGI: > 100 µM
[42]
  TGI: > 100 µM
[43]
  TGI: > 100 µM
[44]
  TGI: > 100 µM
[45]
  TGI: > 100 µM
[46]
  TGI: > 100 µM
[47]
  TGI: > 100 µM
[48]
  TGI: > 100 µM
[49]
  TGI: > 100 µM
[50]
  TGI: > 100 µM
[51]
  TGI: > 100 µM
[52]
  TGI: > 100 µM
[53]
  TGI: > 100 µM
[54]
  TGI: > 100 µM
[55]
  TGI: > 100 µM
[56]
  TGI: > 100 µM
